Assay results from patent US20220143222A1, “SUBCUTANEOUS AND INTRAMUSCULAR ADMINISTRATION OF PYRAZINE COMPOUNDS” (MediBeacon Inc., priority 2020, published 2022).

Legend:
[1] = MB-102 pig plasma concentration after IV dosing; format: in vivo; conditions: pig 48019, IV, 3.2 mpk
From the text: Juvenile Yorkshire pigs weighing approximately 25 kg were anesthetized, their body temperature stabilized, and an IV port surgically placed. A region approximately half-way along the line between the hip and knee joint was selected as the injection site and prepared by cleaning the skin and removing any exposed hair by shaving the selected area at least twice. Similarly, the site where two Quantum Leap fluorescent sensors (disclosed in U.S. Pat. No. 10,548,521) were to be positioned (chest) was prepared by washing and shaving. After the skin was dry the sensors were attached with commercially available skin adhesive and background skin auto-fluorescence measurements were recorded. After about 20 minutes of background fluorescence collection the subject animal was dosed either intravenously (animal 48019) or subcutaneously (animals 52771, 53701 09802, or 1539) or intramuscularly (09801) with PBS-1× formulated MB-102 at 3.2 mg/kg. Injection of the appropriate volume took place over about a minute. […] At this point glomerular elimination of MB-102 by the kidneys led to a decrease of fluorescence signal over time. Blood samples (1.5 mL) were taken immediately prior to the introduction of MB-102 (0 minutes) and at 15 minute intervals throughout the procedure. Blood was collected in BD vacutainer K2EDTA tubes, spun to plasma and stored at −80° C. until analyzed. Subsequently, the processed plasma samples were thawed, diluted with PBS-1× and analyzed by HPLC or UPLC and the concentration of MB-102 determined using standard analytical techniques. Further details for each animal are provided in the examples that follow.
Subject pig, 48019, the control animal, was prepared as in Example 6 and dosed IV using 8.2 mL of 11.8 mg/mL MB-102 in PBS-1× (bolus over about 2 min).

[2] = Storage of concentrated MB-102 salt solution at 4° C. (precipitation); format: physicochemical; conditions: sodium salt, 300 mg per mL water (w/v), 4° C. overnight
Experimental: MB-102 (0.300 g, 0.81 mmol), was placed in a vial (4.0 mL). Water was added (0.8 mL, D.I.) and the mixture sonicated for a brief period of time. To the mixture was added aqueous 6.25 N NaOH (2 equivalents, 1.62 mmol, 0.24 mL, added in portions; 0.020 mL×12 to effect solution) with stirring and brief periods of sonication. […] The final concentration was 300 mg (2R,2′R)-2,2′-((3,6-diaminopyrazine-2,5-dicarbonyl)bis(azanediyl))bis(3-hydroxypropanoic acid), MB-102 per mL water (w/v).
MB-102 (0.30 g, 0.81 mmol) was weighed into a 5 mL v-vial equipped with a Teflon-covered magnetic spin vane. Choline hydroxide in water (Aldrich, 0.43 g of 46 wt %, 1.62 mmol) was added portion-wise with stirring until a solution was obtained. The total weight of the solution was 0.73 g or 64.2 wt % MB-102 di-choline salt (MW: 578.6).

- concentration at 15 min ([1]; Yorkshire, plasma, 3.2 mg/kg, 15 min, read-out: MB-102 Pig Plasma Conc.): 13000 ng/mL
- concentration at 30 min ([1]; Yorkshire, plasma, 3.2 mg/kg, 30 min, read-out: MB-102 Pig Plasma Conc.): 9200 ng/mL
- concentration at 45 min ([1]; Yorkshire, plasma, 3.2 mg/kg, 45 min, read-out: MB-102 Pig Plasma Conc.): 7830 ng/mL
- concentration at 60 min ([1]; Yorkshire, plasma, 3.2 mg/kg, 60 min, read-out: MB-102 Pig Plasma Conc.): 5880 ng/mL
- concentration at 75 min ([1]; Yorkshire, plasma, 3.2 mg/kg, 75 min, read-out: MB-102 Pig Plasma Conc.): 5430 ng/mL
- concentration at 90 min ([1]; Yorkshire, plasma, 3.2 mg/kg, 90 min, read-out: MB-102 Pig Plasma Conc.): 4680 ng/mL
- concentration at 105 min ([1]; Yorkshire, plasma, 3.2 mg/kg, 105 min, read-out: MB-102 Pig Plasma Conc.): 4000 ng/mL
- concentration at 120 min ([1]; Yorkshire, plasma, 3.2 mg/kg, 120 min, read-out: MB-102 Pig Plasma Conc.): 3340 ng/mL
- concentration at 135 min ([1]; Yorkshire, plasma, 3.2 mg/kg, 135 min, read-out: MB-102 Pig Plasma Conc.): 3250 ng/mL
- concentration at 150 min ([1]; Yorkshire, plasma, 3.2 mg/kg, 150 min, read-out: MB-102 Pig Plasma Conc.): 2700 ng/mL
- concentration at 165 min ([1]; Yorkshire, plasma, 3.2 mg/kg, 165 min, read-out: MB-102 Pig Plasma Conc.): 2410 ng/mL
- concentration at 180 min ([1]; Yorkshire, plasma, 3.2 mg/kg, 180 min, read-out: MB-102 Pig Plasma Conc.): 2200 ng/mL
- concentration at 195 min ([1]; Yorkshire, plasma, 3.2 mg/kg, 195 min, read-out: MB-102 Pig Plasma Conc.): 2000 ng/mL
- concentration at 210 min ([1]; Yorkshire, plasma, 3.2 mg/kg, 210 min, read-out: MB-102 Pig Plasma Conc.): 1910 ng/mL
- concentration at 225 min ([1]; Yorkshire, plasma, 3.2 mg/kg, 225 min, read-out: MB-102 Pig Plasma Conc.): 1690 ng/mL
- concentration at 240 min ([1]; Yorkshire, plasma, 3.2 mg/kg, 240 min, read-out: MB-102 Pig Plasma Conc.): 1510 ng/mL
- concentration at 255 min ([1]; Yorkshire, plasma, 3.2 mg/kg, 255 min, read-out: MB-102 Pig Plasma Conc.): 1400 ng/mL
- concentration at 270 min ([1]; Yorkshire, plasma, 3.2 mg/kg, 270 min, read-out: MB-102 Pig Plasma Conc.): 1320 ng/mL
- concentration at 285 min ([1]; Yorkshire, plasma, 3.2 mg/kg, 285 min, read-out: MB-102 Pig Plasma Conc.): 1140 ng/mL
- concentration at 300 min ([1]; Yorkshire, plasma, 3.2 mg/kg, 300 min, read-out: MB-102 Pig Plasma Conc.): 1110 ng/mL
- concentration at 315 min ([1]; Yorkshire, plasma, 3.2 mg/kg, 315 min, read-out: MB-102 Pig Plasma Conc.): 1000 ng/mL
- concentration at 330 min ([1]; Yorkshire, plasma, 3.2 mg/kg, 330 min, read-out: MB-102 Pig Plasma Conc.): 917 ng/mL
- concentration at 345 min ([1]; Yorkshire, plasma, 3.2 mg/kg, 345 min, read-out: MB-102 Pig Plasma Conc.): 859 ng/mL
- concentration at 360 min ([1]; Yorkshire, plasma, 3.2 mg/kg, 360 min, read-out: MB-102 Pig Plasma Conc.): 819 ng/mL
- SUM (plasma conc. over time) ([1]; 15-360 min): 1,188,637 ng/mL*min
- precipitate formation on storage [2]: no precipitate formation
Structure (SMILES): Nc1nc(C(=O)N[C@H](CO)C(=O)O)c(N)nc1C(=O)N[C@H](CO)C(=O)O [MB-102, 3,6-diamino-2,5-bis{N-[(1R)-1-carboxy-2-hydroxyethyl]carbamoyl}pyrazine]
